Laboratory results from ChEMBL document CHEMBL1137931, “Anti-AIDS agents. Part 58: synthesis and anti-HIV activity of 1-thia-di-O-(-)-camphanoyl-(+)-cis-khellactone (1-thia-DCK) analogues” (Bioorg Med Chem Lett, 2004).

Legend:
H9 [1] = assay: Concentration required to inhibit uninfected H9 cell growth by 50%; assay type: functional, cell-based; details: Homo sapiens
H9 [2] = assay: Concentration required to inhibit HIV-1 replication by 50% in acutely infected H9 lymphocytes; NA means not active; assay type: functional, cell-based, Homo sapiens
[3] = Therapeutic index expressed as IC50/EC50; details: read-out: TI
H9 [4] = assay: Concentration required to inhibit HIV-1 replication by 50% in acutely infected H9 lymphocytes; assay type: functional, cell-based; details: Homo sapiens

Row | EC50 (H9 [2]) | EC50 (H9 [4]) | Structure (SMILES) | IC50 (H9 [1]) | selectivity ratio [3]
1 | Not Active |  | Cc1cc(=O)sc2c3c(ccc12)OC(C)(C)[C@H](O)[C@@H]3O | 302 µM | 
2 |  |  | Cc1cc(=O)sc2c3c(ccc12)OC[C@H](OC(=O)C12CCC(C)(C(=O)O1)C2(C)C)[C@@H]3OC(=O)C12CCC(C)(C(=O)O1)C2(C)C (stereo not given in full) | 194 µM | 62.3
3 | Not Active |  | Cc1cc(=O)sc2c3c(ccc12)OC(C)(C)C=C3 | 339 µM | 
4 |  |  | Cc1cc(=O)sc2c3c(ccc12)OC[C@H](O)[C@@H]3O | 340 µM | 11.1
5 |  | 0.000256 µM | CC1(C)Oc2ccc3ccc(=O)oc3c2[C@@H](OC(=O)C23CCC(C)(C(=O)O2)C3(C)C)[C@H]1OC(=O)C12CCC(C)(C(=O)O1)C2(C)C (stereo not given in full) |  | 137000
6 |  |  | Cc1cc(=O)sc2c3c(ccc12)OCC=C3 | 478 µM | 62.3
7 |  | 120 µM | Cc1cc(=O)sc2c3c(ccc12)OC(C)(C)[C@H](OC(=O)C12CCC(C)(C(=O)O1)C2(C)C)[C@@H]3OC(=O)C12CCC(C)(C(=O)O1)C2(C)C (stereo not given in full) | 169 µM | 
8 |  | 0.045 µM | Cc1cn([C@H]2C[C@H](N=[N+]=[N-])[C@@H](CO)O2)c(=O)[nH]c1=O [ZIDOVUDINE] |  | 
